Measurements as given in US9167821B2 (priority 2009, dated 2015).

How the values were obtained:
[1] = for logp [b]: pH 2.7; for logp [c]: pH 7.8; for logp [a]: pH 2.3
Description: (§1) The determination is effected in the acidic range at pH 2.3 using 0.1% aqueous phosphoric acid and acetonitrile as eluents; linear gradient from 10% acetonitrile to 95% acetonitrile. • ^[b] The LC-MS determination in the acidic range is effected at pH 2.7 using 0.1% aqueous formic acid and acetonitrile (contains 0.1% formic acid) as eluents; linear gradient from 10% acetonitrile to 95% acetonitrile. • ^[c] The LC-MS determination in the neutral range is effected at pH 7.8 using 0.001 molar aqueous ammonium hydrogencarbonate solution and acetonitrile as eluents; linear gradient from 10% acetonitrile to 95% acetonitrile.
(§2) The calibration is effected with unbranched alkan-2-ones (having 3 to 16 carbon atoms) with known log P values (determination of the log P values using the retention times by linear interpolation between two successive alkanones).

[2] = tested on: Peronospora brassicae; assay: Peronospora test (rapeseed)/seed treatment; type: in vivo; conditions: 50 g/dt active ingredient, greenhouse, infected leaf area per plant, 0% = control, 100% = no infestation
Protocol: Peronospora Test (Rapeseed)/Seed Treatment
The test was carried out under greenhouse conditions.
To produce an active ingredient preparation, the active ingredient was dissolved in N-methyl-2-pyrrolidone and the concentrate was diluted with water to the desired concentration. The rapeseeds treated with this solution were sown in 6*6 cm pots which had been filled to a height of 4 cm with a 1:1 mixture of steam-treated soil and sand. Then the plants were cultivated at 10° C.
After 14 days, the plants were inoculated with an aqueous spore suspension of Peronospora brassicae. Subsequently, the plants were placed in a greenhouse at approx. 15° C. and 100% air humidity for 7 days.
The evaluation was effected by assessing the infected leaf area per plant. 0% means an efficiency which corresponds to that of the control, while an efficiency of 100% means that no infestation is observed.

[3] = tested on: Phytophthora infestans; assay: whole plant or invertebrate; type: in vivo; conditions: for efficacy: tomato plants, protective spray, 10 ppm active ingredient, evaluation 3 days after inoculation, 0% = control, 100% = no infection; for pest or weed control at 10 ppm: Phytophthora infestans, in Solanum lycopersicum, 72 h, read-out: efficacy
[4] = tested on: Plasmopara viticola; assay: Plasmopara test (grapevine)/protective; type: in vivo; conditions: grapevine plants, protective spray, 10 ppm active ingredient, evaluation 6 days after inoculation, 0% = control, 100% = no infection; for pest or weed control at 10 ppm: Plasmopara viticola, 144 h, read-out: efficacy
Protocol: Plasmopara Test (Grapevine)/Protective
To prepare an appropriate active ingredient preparation, 1 part by weight of active ingredient is mixed with the stated amounts of solvent and emulsifier, and the concentrate is diluted with water to the desired concentration.
To test for protective efficacy, young plants are sprayed with the active ingredient preparation at the stated application rate. After the spray coating has dried on, the plants are inoculated with an aqueous spore suspension of Plasmopara viticola and then remain in an incubation cabinet at about 20° C. and 100% relative atmospheric humidity for 1 day. The plants are then placed in a greenhouse at approx. 21° C. and approx. 90% air humidity for 4 days. The plants are then moistened and placed in an incubation cabinet for 1 day.
Evaluation follows 6 days after the inoculation.

[5] = physchem
Description: as §1, §2

Structure (SMILES)	logp [b] [1]	logp [c] [1]	efficacy [3] [%]	efficacy [4] [%]	chromatographic logP ([5]; pH 2.7, logp [b])	pest or weed control at 10 ppm [3] [%]	pest or weed control at 10 ppm [4] [%]	further results
O=C(Cn1nc(C(F)F)cc1C(F)F)N1CCC(c2nc(C3=NOC(c4ccccc4)C3)cs2)CC1 (racemic) [I-1]	3.17^[b];	3.11^[c]	95	100				efficiency [2]: 100%
O=C(Cn1nc(C(F)F)cc1C(F)F)N1CCC(c2nc(C3=NOC(c4c(F)cccc4F)C3)cs2)CC1 (racemic) [I-2]	3.14^[b]		99	100				
O=C(Cn1nc(C(F)F)cc1C(F)F)N1CCC(F)(c2nc(C3=NOC(c4ccccc4F)C3)cs2)CC1 (racemic) [I-4]	3.49^[b]			100				
O=C(Cn1nc(C(F)F)cc1C(F)F)N1CCC(F)(c2nc(C3=NOC(c4c(F)cccc4F)C3)cs2)CC1 (racemic) [I-6]	3.43^[b];	3.34^[c]	94	100				efficiency [2]: 100%
CC(=O)c1cccc(C2CC(c3csc(C4CCN(C(=O)Cn5nc(C(F)F)cc5C(F)F)CC4)n3)=NO2)c1 (racemic) [I-8]	2.78^[b]		97	99				
CC#CCOc1cccc(C2CC(c3csc(C4CCN(C(=O)Cn5nc(C(F)F)cc5C(F)F)CC4)n3)=NO2)c1 (racemic) [I-15]		3.33^[c];	95	93				logp [a] [1]: 3.29^[a]
C#CCOc1cccc(C2CC(c3csc(C4CCN(C(=O)Cn5nc(C(F)F)cc5C(F)F)CC4)n3)=NO2)c1 (racemic) [I-21]		3.16^[c];	98	100				logp [a] [1]: 3.24^[a]
C#CCOc1ccc(C2CC(c3csc(C4CCN(C(=O)Cn5nc(C(F)F)cc5C(F)F)CC4)n3)=NO2)cc1 (racemic) [I-22]		3.08^[c]	98	97				logp [a] [1]: 3.14^[a];
O=Cc1cccc(C2CC(c3csc(C4CCN(C(=O)Cn5nc(C(F)F)cc5C(F)F)CC4)n3)=NO2)c1 (racemic) [I-23]	2.78^[b]		97	99				
CCC#CCOc1ccccc1C1CC(c2csc(C3CCN(C(=O)Cn4nc(C(F)F)cc4C(F)F)CC3)n2)=NO1 (racemic) [I-25]	3.91^[b]		95	74				
C#CCOc1ccccc1C1CC(c2csc(C3CCN(C(=O)Cn4nc(C(F)F)cc4C(F)F)CC3)n2)=NO1 (racemic) [I-39]		3.23^[c];	99	99				logp [a] [1]: 3.28^[a]
CS(=O)(=O)Nc1ccc(C2CC(c3csc(C4CCN(C(=O)Cn5nc(C(F)F)cc5C(F)F)CC4)n3)=NO2)cc1 (racemic) [I-40]	2.41^[b]		95	91				
O=C(Cn1nc(C(F)F)cc1C(F)F)N1CCC(c2nc(C3=NOC(c4cccc(O)c4)C3)cs2)CC1 (racemic) [I-42]		2.45^[c];	94	97				logp [a] [1]: 2.43^[a]
O=C(Cn1nc(C(F)F)cc1C(F)F)N1CCC(c2nc(-c3cc(-c4ccccc4)on3)cs2)CC1 [I-3]	3.66^[b]		100	100				
O=C(Cn1nc(C(F)F)cc1C(F)F)N1CCC(F)(c2nc(C3=NOC(c4ccccc4)C3)cs2)CC1 (stereo not drawn) [I-5, 2-[3,5-bis(difluoromethyl)-1H-pyrazol-1-yl]-1-{4-fluoro-4-[4-(5-phenyl-4,5-dihydro-1,2-oxazol-3-yl)-1,3-thiazol-2-yl]piperidin-1-yl}ethanone]					3.41	93	97	chromatographic logP ([5]; pH 2.7, log P (HCOOH)): 3.41
CC(=O)c1ccccc1C1CC(c2csc(C3CCN(C(=O)Cn4nc(C(F)F)cc4C(F)F)CC3)n2)=NO1 (stereo not drawn) [I-7, 1-(4-{4-[5-(2-Acetylphenyl)-4,5-dihydro-1,2-oxazol-3-yl]-1,3-thiazol-2-yl}piperidin-1-yl)-2-[3,5-bis(difluoromethyl)-1H-pyrazol-1-yl]ethanone]					3.08	97	100	efficiency [2]: 100%
O=C(Cn1nc(C(F)F)cc1C(F)F)N1CCC(c2nc(C3=NOC(c4ccccc4O)C3)cs2)CC1 (stereo not drawn) [I-9, 2-[3,5-Bis(difluoromethyl)-1H-pyrazol-1-yl]-1-(4-{4-[5-(2-hydroxyphenyl)-4,5-dihydro-1,2-oxazol-3-yl]-1,3-thiazol-2-yl}piperidin-1-yl)ethanone]						96	99	chromatographic logP ([5]; pH 2.3): 2.58; chromatographic logP ([5]; pH 7.8, logp [c]): 2.6
O=C(Cn1nc(C(F)F)cc1C(F)F)N1CCC(c2nc(C3=NOC(c4ccccc4[N+](=O)[O-])C3)cs2)CC1 (stereo not drawn) [I-10, 2-[3,5-Bis(difluoromethyl)-1H-pyrazol-1-yl]-1-(4-{4-[5-(2-nitrophenyl)-4,5-dihydro-1,2-oxazol-3-yl]-1,3-thiazol-2-yl}piperidin-1-yl)ethanone]					3.19	97	100	
C=CCOc1ccccc1C1CC(c2csc(C3CCN(C(=O)Cn4nc(C(F)F)cc4C(F)F)CC3)n2)=NO1 (stereo not drawn) [I-14, 1-[4-(4-{5-[2-(Allyloxy)phenyl]-4,5-dihydro-1,2-oxazol-3-yl}-1,3-thiazol-2-yl)piperidin-1-yl]-2-[3,5-bis(difluoromethyl)-1H-pyrazol-1-yl]ethanone]					3.63	98	100	chromatographic logP ([5]; pH 7.8, logp [c]): 3.65
COCCOc1ccccc1C1CC(c2csc(C3CCN(C(=O)Cn4nc(C(F)F)cc4C(F)F)CC3)n2)=NO1 (stereo not drawn) [I-19, 2-[3,5-Bis(difluoromethyl)-1H-pyrazol-1-yl]-1-[4-(4-{5-[2-(2-methoxyethoxy)phenyl]-4,5-dihydro-1,2-oxazol-3-yl}-1,3-thiazol-2-yl)piperidin-1-yl]ethanone]					3.26	96	96	chromatographic logP ([5]; pH 7.8, logp [c]): 3.18
CC(C)=CCOc1ccccc1C1CC(c2csc(C3CCN(C(=O)Cn4nc(C(F)F)cc4C(F)F)CC3)n2)=NO1 (stereo not drawn) [I-20, 2-[3,5-Bis(difluoromethyl)-1H-pyrazol-1-yl]-1-{4-[4-(5-{2-[(3-methylbut-2-en-1-yl)oxy]phenyl}-4,5-dihydro-1,2-oxazol-3-yl)-1,3-thiazol-2-yl]piperidin-1-yl}ethanone]					4.19	95	98	chromatographic logP ([5]; pH 7.8, logp [c]): 4.11
O=Cc1ccccc1C1CC(c2csc(C3CCN(C(=O)Cn4nc(C(F)F)cc4C(F)F)CC3)n2)=NO1 (stereo not drawn) [I-26, 2-{3-[2-(1-{[3,5-Bis(difluoromethyl)-1H-pyrazol-1-yl]acetyl}piperidin-4-yl)-1,3-thiazol-4-yl]-4,5-dihydro-1,2-oxazol-5-yl}benzaldehyde]					2.98	97	100	
Nc1ccccc1C1CC(c2csc(C3CCN(C(=O)Cn4nc(C(F)F)cc4C(F)F)CC3)n2)=NO1 (stereo not drawn) [I-41, 1-(4-{4-[5-(2-Aminophenyl)-4,5-dihydro-1,2-oxazol-3-yl]-1,3-thiazol-2-yl}piperidin-1-yl)-2-[3,5-bis(difluoromethyl)-1H-pyrazol-1-yl]ethanone]						94	100	chromatographic logP ([5]; pH 2.3): 2.7; chromatographic logP ([5]; pH 7.8, logp [c]): 2.71
